Several values for one entry are separate records, joined by “and”; a condition that tells them apart may be missing. Equal entries are not always repeated.
Assays:
APC ^min/J mice = type: in vivo; details: 30 mg/kg oral every other day, 8 weeks
Protocol: UniPR129, UniPR139 and UniPR1331 were tested in an animal model of intestinal tumorigenesis, based on the usage of APC ^min/J mice, which spontaneously develop multiple and large adenomas over intestinal tract due to a gene mutation.
(§1) 5 weeks old C57BL/6J-APC ^min/J male mice were purchased from Jackson Laboratory (Bar Harbor, ME USA). Mice were weighted and randomly subdivided in four groups: • Control group: Oral administration of Methocel 0.5% every other day; • Three treatment groups: oral administration of UniPR129, UniPR139 or UniPR1331 30 mg/kg in Methocel 0.5% every other day.
(§2) The experiment was carried out for 8 weeks and over this period the weight was monitored once a week. At the end of the experiment, all mice were sacrificed by carbon dioxide inhalation and blood samples were collected via intracardiac […] and used for evaluation of hematological parameters.
Hematological and blood chemistry parameters were undergone to one-way ANOVA to compare control group to treatment groups.

[1] = test system: adenomas in APC ^min/J mice; experiment: Intestinal tumorigenesis model: number and diameter of adenomas (histological analysis); type: in vivo
Protocol: UniPR129, UniPR139 and UniPR1331 were tested in an animal model of intestinal tumorigenesis, based on the usage of APC ^min/J mice, which spontaneously develop multiple and large adenomas over intestinal tract due to a gene mutation. […] Five weeks old mice have been treated with the three compounds at 30 mg/kg dose for 8 weeks every other day following previous observations. The weight of the mice has been monitored from the beginning of the treatment until the end of the study to follow the course of the disease and to detect potentially toxic effects of compounds.
as §1, §2
The whole intestine of all the mice was resected, washed with sterile PBS and fixed with 4% formalin. After 24 h, the intestine was longitudinally divided in 6 portions (1-duodenum, 2-jejunum, 3-ileum, 4-caecum, 5-colon, 6-rectum) and each portion was embedded in paraffin and sectioned at 5 μm with microtome (Leica). Slides were dried at 37 °C for 24 h, then deparaffinized in xylene, rehydrated with decreasing concentration of alcohol and stained with hematoxylin and eosin.
Histological slides were examined with Nikon Eclipse E800 microscope (Nikon Corporation, Japan) and photographs of sections were taken at 2x with Camera Nikon DIGITAL SIGHT attached to the microscope. The observation of longitudinal sections of the small intestine allowed to determine the distribution and number of adenomatous lesions; four longitudinal sections have been prepared for each segment of small intestine. The microscopic images of the ileum have been subsequently analyzed, using the ImageJ software, to determine the diameter and area of each adenoma.

[2] = cited from earlier work
[3] = of the total number of adenomas in the ileum section

C[C@H](CCC(=O)N[C@H](CC(=O)O)Cc1c[nH]c2ccccc12)[C@H]1CC[C@H]2[C@@H]3CC[C@@H]4C[C@H](O)CC[C@]4(C)[C@H]3CC[C@]12C [UniPR129]
tolerability (APC ^min/J mice): well tolerated | ALT (APC ^min/J mice; mean ± SD, n = 7): 23.43 ± 3.78 UI | AST/GOT (APC ^min/J mice; mean ± SD, n = 7): 108.86 ± 47.11 UI | Basophils (APC ^min/J mice; mean ± SD, n = 7): 0.00 ± 0.00% | Creatinine (APC ^min/J mice; mean ± SD, n = 7): 0.22 ± 0.08 mg/dL | Eosinophils (APC ^min/J mice; mean ± SD, n = 7): 0.10 ± 0.10% | Glucose (APC ^min/J mice; mean ± SD, n = 7): 161.10 ± 21.18 mg/dL | Haematocrit (APC ^min/J mice; mean ± SD, n = 7): 26.69 ± 6.56% | Haemoglobin (APC ^min/J mice; mean ± SD, n = 7): 8.71 ± 2.15 g/dL | Lymphocytes (APC ^min/J mice; mean ± SD, n = 7): 93.29 ± 6.14% | Mean cellular Volume (APC ^min/J mice; mean ± SD, n = 7): 53.87 ± 2.62 fL | Mean platelet Volume (APC ^min/J mice; mean ± SD, n = 7): 4.91 ± 0.43 fL | Monocytes (APC ^min/J mice; mean ± SD, n = 7): 0.43 ± 0.31% | Neutrophils (APC ^min/J mice; mean ± SD, n = 7): 6.20 ± 6.33% | Platelets (APC ^min/J mice; mean ± SD, n = 7): 1191 ± 186.77 103/µL | Red cells (APC ^min/J mice; mean ± SD, n = 7): 5.01 ± 1.43 106/µL | Triglycerides (APC ^min/J mice; mean ± SD, n = 7): 145.10 ± 38.6 mg/dL | White cells (APC ^min/J mice; mean ± SD, n = 7): 4.83 ± 0.70 103/μL | efficacy in the model of intestinal tumorigenesis ([1]; 30 mg/kg oral every other day, 8 weeks): the only compound to show positive results | Ileum Adenomas, Mean (number) ([1]; 30 mg/kg oral every other day, 8 weeks, n = 7, CTR 13.14): 7.57 ± 2.07 and 7.57 | Overall Intestine Adenomas, Mean (number) ([1]; 30 mg/kg oral every other day, 8 weeks, n = 7, CTR 19.71): 14.00 | reduction of the formation of adenomas in the ileum ([1]; 30 mg/kg oral, 8 weeks, vs control): 1.6 times | mean adenoma diameter in the ileum ([1]; 30 mg/kg oral, ± 0.28 (SD), control 0.94 mm ± 0.39 (SD)): 0.71 mm | number of medium adenomas (1 to 1.5 mm) in the ileum ([1]; 30 mg/kg oral, ± SD, CTR 29 ± 2.5): 11 ± 1.3 | Percentage of adenomas, class Large (1.5 to 2 mm) [1, 3]: 0% | Percentage of adenomas, class Medium (1 to 1.5 mm) [1, 3]: 21% | Percentage of adenomas, class Small (0.5 to 1 mm) [1, 3]: 51% | Percentage of adenomas, class Very Large (> 2 mm) [1, 3]: 0% | Percentage of adenomas, class Very Small (< 0.5 mm) [1, 3]: 28% | bioavailability after oral administration [2]: not be bioavailable after oral administration | first pass hepatic metabolism [2]: extensive first pass hepatic metabolism
